Results reported in patent US11292767B2, “Heterocyclic inhibitors of MCT4” (Vettore, LLC, priority 2016, dated 2022).

Assays:
MCT1 = MCT1 (Homo sapiens (Human), UniProt P53985); assay: Assay 4: MCT1-mediated lactate transport in BT20 breast cancer cells; type: cell-based
Method: (§1) Preparing BCECF-Loaded Cells
(§2) 10 µL of a 30 mM DMSO stock of BCECF-AM ester (Life Technologies) is added and the cells are incubated at 37° C. for 5 min. The cells are pelleted (300 g, 5 min), washed once with 1 mL Tyrode's Solution, pH 7.4, re-pelleted (300 g, 5 min), and resuspended in 1 mL Tyrode's Solution, pH 7.4.
Assay 4: MCT1-Mediated Lactate Transport in BT20 Breast Cancer Cells.
Preparation of BCECF loaded cells are as described for Assay 1. Lactate transport assay is as described for Assay 1, except 10 mM L-lactate (rather than 50 mM) is added.

[1] = Metabolic stability in human liver microsomes (in vitro t1/2); type: in vitro ADME; conditions: human liver microsomes 0.5 mg/mL, 2 μM compound, % remaining at 60 min
In short: (§3)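 Liver microsomes (0.5 mg/mL final) were incubated with 2 μM test compound in the presence of NADPH, with aliquots taken at 0, 15, 30, 45 and 60 min. Parent remaining was quantified by LC-MS/MS. k was taken from the slope of ln(% remaining) versus time, and t1/2 = −0.693/k.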

[2] = Metabolic stability in mouse liver microsomes (in vitro t1/2); type: in vitro ADME; conditions: mouse liver microsomes 0.5 mg/mL, 2 μM compound; for Mouse microsome % 60 min: % remaining at 60 min; for Mouse microsome t1/2, min: in vitro t1/2
In short: as §3

[3] = Pharmacokinetic assay in mouse (IV 3 mg/kg, PO 10 mg/kg); type: in vivo; conditions: male, CD1, mouse, plasma, read-out: Mouse F (%)
Text: (§4) Pharmacokinetic Assays in Mouse and Rat
(§5) The following are assays that may be used to evaluate the pharmacokinetic properties of Formula (I) in mouse or rat. The assays follow a common procedure recited below.
(§6) 1. […] For PO (oral gavage), DMSO/PEG400 (10:90). Formulations freshly prepared on the day of dosing or prior to dosing. Storage at room temperature.
(§7) 2. Test Species: For Mouse: Male CD1 strain, approximately 6-8 weeks in age, approximately 20-30 g. For Rat: Male Sprague-Dawley strain, approximately 6-8 weeks in age, approximately 200-300 g.
(§8) 3. Dose Level: For IV, 3 mg/kg. For PO, 10 mg/kg.
(§9) 4. Number of animals: 3 per assay.
(§10) 5. PK time points: For IV (plasma): 5 min, 15 min, 1, 2, 4, 6, 8, 24 h post dose. For PO (plasma): 15 min, 30 min, 1, 2, 4, 6, 8, 24 h post dose.
(§11) 6. Blood Sample Collection and Processing. Blood was collected (˜0.2 mL per time point) from jugular vein. Blood of each sample was transferred into plastic micro centrifuge tubes containing anticoagulant of EDTA-K2. Blood samples were centrifuged at 2,000 g for 5 minutes at 4° C. to obtain plasma.
(§12) 7. Samples Analysis: Plasma samples were analyzed using LC/MS/MS method, and pharmacokinetic parameters (half-life: t1/2; oral bioavailability: F; volume of distribution: Vss).

[4] = Pharmacokinetic assay in rat (IV 3 mg/kg, PO 10 mg/kg); type: in vivo; conditions: male, Sprague-Dawley, plasma, read-out: Rat F (%)
Text: as §4, §5, §6, §7, §8, §9, §10, §11, §12

CFA-induced arthritis [5] = assay: Adjuvant-induced arthritis model in rat: Difference of Weight Bearing test (DWB); type: in vivo; conditions: SD rat, PO 3 days post CFA, compared to dexamethasone
CFA-induced arthritis [6] = assay: Adjuvant-induced arthritis model in rat: Mechanical Allodynia test (MA); type: in vivo; conditions: SD rat, PO 3 days post CFA, compared to dexamethasone
[7] = Metabolic stability in rat liver microsomes (in vitro t1/2); type: in vitro ADME; conditions: rat liver microsomes 0.5 mg/mL, 2 μM compound; for Rat microsome % 60 min: % remaining at 60 min
In short: as §3

MCT4 = MCT4 (Homo sapiens (Human), UniProt O15427); assay: Assay 3: MCT4-mediated lactate transport in MDA-MB-231 breast cancer cells; type: cell-based; conditions: MDA-MB-231 cells
Method: as §1, §2
MCT4 activity may be assessed by monitoring the intracellular pH change that accompanies lactate/proton symport, using the pH-sensitive fluorescent dye 2′,7′-bis-(carboxyethyl)-5(6)-carboxyfluorescein (BCECF), in a manner similar to that previously reported for MCT1 and MCT4. The following is an exemplary procedure for assaying MCT4 activity of the compounds of Formula (I).

Sequence of MCT1 (P53985 whole entry): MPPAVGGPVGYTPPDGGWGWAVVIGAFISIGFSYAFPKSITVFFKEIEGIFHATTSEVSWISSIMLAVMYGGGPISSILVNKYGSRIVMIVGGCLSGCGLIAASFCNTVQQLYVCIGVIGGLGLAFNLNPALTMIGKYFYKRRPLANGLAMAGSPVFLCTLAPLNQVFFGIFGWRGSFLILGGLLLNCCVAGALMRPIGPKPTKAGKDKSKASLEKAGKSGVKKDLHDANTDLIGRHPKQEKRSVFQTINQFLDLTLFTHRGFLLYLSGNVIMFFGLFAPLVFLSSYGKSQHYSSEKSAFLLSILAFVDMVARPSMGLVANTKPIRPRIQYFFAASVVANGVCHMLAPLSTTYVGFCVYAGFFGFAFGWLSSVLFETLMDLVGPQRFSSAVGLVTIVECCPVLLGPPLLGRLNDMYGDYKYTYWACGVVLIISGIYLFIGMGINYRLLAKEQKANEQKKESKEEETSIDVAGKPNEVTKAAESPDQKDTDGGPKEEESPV
Sequence of MCT1 (P35613 140-385 partner): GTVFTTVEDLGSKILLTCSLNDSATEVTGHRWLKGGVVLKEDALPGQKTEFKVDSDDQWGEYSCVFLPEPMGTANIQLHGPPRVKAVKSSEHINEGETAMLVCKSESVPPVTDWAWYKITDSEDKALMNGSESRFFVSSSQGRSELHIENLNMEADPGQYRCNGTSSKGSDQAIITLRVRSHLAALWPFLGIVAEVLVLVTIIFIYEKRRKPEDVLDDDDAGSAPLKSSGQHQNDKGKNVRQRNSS
Sequence of MCT4 (O15427 whole entry, looked up): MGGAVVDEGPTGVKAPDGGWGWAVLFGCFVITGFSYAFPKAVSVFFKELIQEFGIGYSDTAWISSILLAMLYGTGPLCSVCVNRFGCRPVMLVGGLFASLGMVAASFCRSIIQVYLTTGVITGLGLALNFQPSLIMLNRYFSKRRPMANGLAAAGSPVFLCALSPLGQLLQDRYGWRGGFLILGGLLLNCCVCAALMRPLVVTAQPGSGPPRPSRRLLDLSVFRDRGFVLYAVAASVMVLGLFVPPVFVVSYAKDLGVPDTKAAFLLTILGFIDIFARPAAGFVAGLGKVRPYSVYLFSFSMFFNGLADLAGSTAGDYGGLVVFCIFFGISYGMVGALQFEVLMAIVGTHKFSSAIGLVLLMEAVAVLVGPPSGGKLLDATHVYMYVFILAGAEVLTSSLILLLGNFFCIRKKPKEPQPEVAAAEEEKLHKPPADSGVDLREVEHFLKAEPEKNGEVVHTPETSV
Sequence of MCT4 (P35613 whole entry partner, looked up): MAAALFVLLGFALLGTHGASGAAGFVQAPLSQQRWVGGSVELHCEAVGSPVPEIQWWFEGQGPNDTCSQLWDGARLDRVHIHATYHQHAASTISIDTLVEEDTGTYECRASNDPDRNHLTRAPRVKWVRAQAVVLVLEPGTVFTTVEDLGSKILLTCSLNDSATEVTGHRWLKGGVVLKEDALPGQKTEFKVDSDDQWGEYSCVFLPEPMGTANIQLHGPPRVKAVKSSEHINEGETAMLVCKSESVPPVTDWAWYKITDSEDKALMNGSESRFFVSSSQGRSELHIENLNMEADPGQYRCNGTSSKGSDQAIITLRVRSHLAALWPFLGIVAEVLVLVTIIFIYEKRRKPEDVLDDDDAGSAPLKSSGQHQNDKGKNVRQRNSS

Compound | IC50 (MCT1; lactate transport (Table 26)) | IC50 (MCT1; lactate transport (Table 27)) | Human microsome % 60 min [1] | Mouse microsome % 60 min [2] | bioavailability [3] | bioavailability [4] | Rat microsome % 60 min [7] | IC50 (MCT4) | Mouse microsome t1/2, min [2] | Rat microsome t1/2, min ([7]; in vitro t1/2) | Difference in Weight Bearing, Minimal Efficacious Dose (CFA-induced arthritis [5]) | Mechanical Allodynia (Von Frey), Minimal Efficacious Dose (CFA-induced arthritis [6])
COc1cccc(-c2cc(COC(C)(C)C(=O)O)nn2Cc2ccccc2Cl)c1 [Example 14, 2-([1-[(2-Chlorophenyl)methyl]-5-(3-methoxyphenyl)1H-pyrazol-3-yl]methoxy)-2-methylpropanoic acid] | > 100000 nM | > 100000 nM | 82% | 95% | 100% | 64% | – | – | – | – | 30 mg/kg | 30 mg/kg
CC(C)(OCc1cc(-c2cccc(OC3CC3)c2)n(-c2ccccc2Cl)n1)C(=O)O [Example 110, 2-([1-(2-Chlorophenyl)-5-(3-cyclo-propoxyphenyl)-1H-pyrazol-3-yl]methoxy)-2-methylpropanoic acid] | – | – | 99% | 86% | 100% | 84% | 94% | – | – | – | 10 mg/kg | 10 mg/kg
CC(C)(OCc1cc(-c2cc(OC3CC3)cs2)n(Cc2ccccc2Cl)n1)C(=O)O [Example 130, 2-([1-[(2-Chlorophenyl)methyl]-5-(4-cyclopropoxythien-2-yl)-1H-pyrazol-3-yl]methoxy)-2-methylpropanoic acid] | – | 55 nM | – | – | – | – | – | 98 nM | – | – | – | –
CC(C)COc1cccc(-c2cc(COC(C)(C)C(=O)O)nn2-c2cccc3cnn(C)c23)c1 [Example 170, 2-methyl-2-([1-(1-methyl-1H-indazol-7-yl)-5-[3-(2-methylpropoxy)phenyl]-1H-pyrazol-3-yl]methoxy]propanoic acid] | – | – | 87% | 99% | 100% | 18% | 95% | – | ∞ | ∞ | 3 mg/kg | 3 mg/kg
CC(C)(OCc1cc(-c2cccc(OC3CC3)c2)n(-c2ccccc2N2CCC2)n1)C(=O)O [Example 232, 2-([1-[2-(Azetidin-1-yl)phenyl]-5-(3-cyclopropoxyphenyl)-1H-pyrazol-3-yl]-methoxy)-2-methylpropanoic acid] | – | – | 65% | 59% | 56% | 52% | 50% | – | – | – | 1 mg/kg | 1 mg/kg

Second part, led by results:

IC50 (MCT1; lactate transport (Table 26)) | IC50 (MCT1; lactate transport (Table 27)) | Human microsome % 60 min [1] | Mouse microsome % 60 min [2] | bioavailability [3] | bioavailability [4] | Rat microsome % 60 min [7] | IC50 (MCT4) | Mouse microsome t1/2, min [2] | Rat microsome t1/2, min ([7]; in vitro t1/2) | Compound | Difference in Weight Bearing, Minimal Efficacious Dose (CFA-induced arthritis [5]) | Mechanical Allodynia (Von Frey), Minimal Efficacious Dose (CFA-induced arthritis [6])
– | – | 90% | – | 89% | 43% | 98% | – | ∞ | – | CCn1ncc2ccc(-c3cc(COC(C)(C)C(=O)O)nn3Cc3ccccc3Cl)cc21 [Example 150, 2-([1-[(2-Chlorophenyl)methyl]-5-(1-ethyl-1H-indazol-6-yl)-1H-pyrazol-3-yl]-methoxy)-2-methylpropanoic Acid] | 10 mg/kg | 10 mg/kg
– | – | 64% | 81% | 100% | 100% | 69% | – | – | – | CCn1ncc2ccc(-c3cc(COC(C)(C)C(=O)O)nn3-c3ccccc3N3CCCC3)cc21 [Example 229, 2-([5-(1-ethyl-1H-indazol-6-yl)-1-[2-(pyrrolidin-1-yl)phenyl]-1H-pyrazol-3-yl]methoxy)-2-methylpropanoic acid] | 3 mg/kg | 3 mg/kg
– | 41000 nM | – | – | – | – | – | 1.3 nM | – | – | CCCn1ncc2ccc(-c3cc(COC(C)(C)C(=O)O)nn3-c3ccccc3N3CCCC3)cc21 [Example 250, 2-Methyl-2-([5-(1-propyl-1H-indazol-6-yl)-1-[2-(pyrrolidin-1-yl)phenyl]-1H-pyrazol-3-yl]methoxy]propanoic acid] | – | –
